What all share (assay): NCI anticancer screen, dose series, 48 h
Assay [1] concerns PC-3 prostate.
Assay [2] concerns HCT-116 colon.
The test system of assay [3] is SN12C renal.
Assay [4] relates to OVCAR-8 ovarian.
For assay [5], the system named is OVCAR-3 ovarian.
For assay [6], the system named is A498 renal.
Assay [7] concerns NCI/ADR-RES ovarian.
Assay [8] deals with ACHN renal.
Assay [9] concerns HCT-15 colon.
For assay [10], the system named is MDA-MB-435.

“And” between values parts separate entries of the source, which are not always exact repeats. Equal entries are not always repeated.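 A five-concentration, 48-hour dose response in 96-well plates underlies each endpoint, interpolated linearly between surrounding concentrations. Abbreviation: GI50, concentration required for 50% inhibition of growth. TGI denotes the concentration required for complete inhibition of growth.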 A value given as a limit tells only on which side of the number the result lay.

With `O=C1C(=O)c2ccccc2C(O)=C1CCCc1ccc(C2CCCC2)cc1`, the GI50 is 3.3 µM in assay [1]; 3.55 µM in [2]; 6.78 µM in [3]; 5.8 µM in assay [4]; 4.91 µM in assay [5]; 7.24 µM in [6]. Also, the GI50 in [7] is 5.89 µM; in assay [8] it was 6.08 µM; in assay [9], 4.25 µM; in assay [10] it was 5.1 µM. The TGI in [1] came out at 19.7 µM; in assay [2], 13.2 µM; in assay [3], 95 µM; in assay [4], 60 µM; in assay [5], 20.1 µM; in assay [6] it was 23 µM. Further, the TGI in [7] was 30.2 µM; in [8], 39.6 µM; in assay [9] it was 16.9 µM; in assay [10], 38.8 µM.
Take `C[N+](C)(CCCCCC[N+](C)(C)CCCN1C(=O)c2cc3ccccc3cc2C1=O)CCCN1C(=O)c2cc3ccccc3cc2C1=O`: the GI50 in [1], in assay [2], in assay [3], in assay [4], in assay [5] and in assay [6] was more than 37.5 µM in each case. Besides, the GI50 in assay [7], in assay [8], in assay [9] and in [10] was more than 37.5 µM each time. Also, the TGI in assay [1], in assay [2], in assay [3], in assay [4], in assay [5] and in [6] was more than 37.5 µM throughout. In addition, the TGI in assay [7], in assay [8], in assay [9] and in assay [10] was more than 37.5 µM each time.
In the case of `Nc1nc2c(nnn2C2OC(CO)C(O)C2O)c(=O)[nH]1` (stereo not given), the GI50 in assay [1] was 0.617 µM; in assay [2], 2.16 µM; in assay [3], 3.25 µM; in [4], 1.18 µM; in assay [5] it was 1.17 µM; in assay [6] it was 1.86 µM. Also, the GI50 in [7] was 1.23 µM; in assay [8] it was 0.298 µM; in assay [9], 0.714 µM; in assay [10], 2.11 µM. Further, the TGI was more than 44 µM in [1]; more than 100 µM in assay [2]; more than 100 µM in assay [3]; more than 100 µM in assay [4]; 10.7 µM in [5]; more than 30.2 µM in [6]. For the same molecule, the TGI in [7], in assay [8], in [9] and in assay [10] was more than 100 µM throughout.
Consider `O=S1(=O)NC2CCC3NS(=O)(=O)NC4CCC(N1)N4S(=O)(=O)N23` (stereo not given), for which the TGI in assay [1], in [2], in assay [3], in assay [4], in assay [5] and in [6] was more than 100 µM throughout. Moreover, the TGI in assay [7], in assay [8], in assay [9] and in assay [10] was more than 100 µM each time.
Turning to `COC(=O)c1ccc2c(c1)C(=O)c1c-2n(C)c(=O)c2cc(OC)c(OC)cc12`, the GI50 was more than 50 µM in assay [1]; 40.1 µM in [2]; more than 50 µM in assay [3]; more than 50 µM in [4]; 44.6 µM in [5]; more than 50 µM in assay [6]. For the same molecule, the GI50 in assay [7], in assay [8], in assay [9] and in assay [10] was more than 50 µM throughout. For the same molecule, the TGI in [1], in [2], in [3], in [4], in assay [5] and in assay [6] was more than 50 µM in each case. For the same molecule, the TGI in [7], in [8], in [9] and in assay [10] was more than 50 µM each time.
On to `CCC(CCC(C)C1CCC2C3CC=C4CC(OC5OC(CO)C(O)C(O)C5O)CCC4(C)C3CCC12C)C(C)C` (stereo not given), for which the TGI in assay [1], in [2], in assay [3], in assay [4], in assay [5] and in assay [6] was more than 100 µM in each case. In addition, the TGI in assay [7], in [8], in [9] and in [10] was more than 100 µM throughout.
Consider `COc1cc2oc(-c3ccc(O)cc3O)c(CC=C(C)C)c(=O)c2c(O)c1/C=C/C(C)C`, for which the TGI in [1] was 8.2 µM; in [2] it was 3.93 µM; in [3], 3.35 µM; in assay [4], 3.18 µM; in assay [5], 4.94 µM; in assay [6], 5.12 µM. Further, the TGI in [7] was determined as 8.24 µM; in assay [8], 8.12 µM; in assay [9] it was 10.3 µM; in assay [10], 4.49 µM.
Consider `C[C@]12CC[C@H]3[C@@H](CCC4=CC(=O)CC[C@@]43C)[C@@H]1CC[C@@H]2C(=O)COS(=O)(=O)c1ccc(Br)cc1`, for which the TGI in assay [1] stood at 23 µM; in assay [2] it was 22.7 µM; in assay [3], 34.3 µM; in assay [4], 14.3 µM; in assay [5], 28 µM; in assay [6], 37.2 µM. For the same molecule, the TGI was more than 100 µM in [7], 27.6 µM in [8], 55.7 µM in [9] and 32.8 µM in assay [10].
On to `Clc1cc2c(nn1)Nc1ccccc1S2`, for which the GI50 in [1], in assay [2], in assay [3], in assay [4], in assay [5] and in [6] was more than 100 µM throughout. Also, the GI50 in assay [7], in assay [8], in assay [9] and in assay [10] was more than 100 µM in each case. Moreover, the TGI in assay [1], in assay [2], in assay [3], in assay [4], in [5] and in [6] was more than 100 µM each time. The TGI in assay [7], in assay [8], in assay [9] and in [10] was more than 100 µM throughout.
Turning to `CNc1cc2nc3cc(NC)c(C)cc3cc2cc1C`, the GI50 in assay [1] is 1.07 µM; in assay [2] it was 0.365 µM; in assay [3] it was 0.573 µM; in assay [4], 0.754 µM; in assay [5], 1.32 µM; in assay [6] it was 1.18 µM. Moreover, the GI50 in assay [7] is 1.69 µM; in assay [8], 0.965 µM; in [9], 3.7 µM; in [10], 2.48 µM. In addition, the TGI was found to be 15.7 µM in [1]; 1.49 µM in assay [2]; 10.5 µM in assay [3]; 9.83 µM in assay [4]; 10 µM in [5]; 3.9 µM in assay [6]. In addition, the TGI in assay [7] worked out at 9.28 µM; in assay [8], 20.8 µM; in assay [9], 91.1 µM; in [10], 18.3 µM.
Regarding `CC(C)(CCN=C(N)Nc1ccccn1)c1ccc(C(F)(F)F)cc1`, the GI50 in assay [1] was 14.2 µM; in assay [2] it was 10.6 µM; in assay [3] it was 15.1 µM; in [4], 17.7 µM; in assay [5], 13.7 µM; in assay [6], 14.9 µM. Also, the GI50 is 17.5 µM in assay [7], 13.5 µM in assay [8], 14.4 µM in [9] and 15.1 µM in assay [10]. Also, the TGI is 28.9 µM in assay [1]; 24.3 µM in assay [2]; 29.8 µM in [3]; 33.2 µM in assay [4]; 29.5 µM in [5]; 28.8 µM in assay [6]. Moreover, the TGI in assay [7] came to 32.9 µM; in assay [8] it was 26.5 µM; in [9], 29.2 µM; in [10], 29 µM.
Consider `CCCCCc1cc[n+](CC(=O)c2ccc([N+](=O)[O-])cc2)cc1`, for which the GI50 in [1] is 4.14 µM; in assay [2] it was 3.14 µM; in [3], 9.63 µM; in assay [4], 5.85 µM; in assay [5], 2.78 µM; in [6], 10.4 µM. For the same molecule, the GI50 in [7] is 18.5 µM; in assay [8], 11 µM; in assay [9], 13.6 µM; in assay [10], 3.7 µM. Also, the TGI in assay [1] is 34.7 µM; in assay [2] it was 11.4 µM; in assay [3], more than 100 µM; in assay [4], 39.6 µM; in assay [5], 10.4 µM; in assay [6], 24.6 µM. For the same molecule, the TGI stood at 52.2 µM in [7], 45.1 µM in [8], 49.9 µM in [9] and 14.6 µM in assay [10].
Consider `CC(=O)c1ccc(Nc2nc(Nc3ccc(F)cc3)nc(Nc3ccc(F)cc3)n2)cc1`, for which the GI50 was 8.89 µM in assay [1]; 12.7 µM in [2]; 23.6 µM in assay [3]; 6.91 µM in assay [4]; 10.6 µM in assay [5]; 4.69 µM in assay [6]. In addition, the GI50 in assay [7] is 5.5 µM; in [8] it was 14.7 µM; in assay [9], 8.49 µM; in assay [10], 3.24 µM. For the same molecule, the TGI is more than 100 µM in [1]; more than 100 µM in assay [2]; more than 100 µM in [3]; 24.8 µM in assay [4]; 33 µM in assay [5]; 18.3 µM in [6]. The TGI in assay [7] is 54.1 µM; in [8], 45.1 µM; in [9], more than 100 µM; in [10] it was more than 100 µM.
In the case of `CN(C)CCC=C1c2ccccc2C(C)(C)c2ccccc21`, the GI50 in assay [1] is 10.4 µM; in assay [2], 10.3 µM; in [3], 15.6 µM; in [4], 18.6 µM; in assay [5], 15.2 µM; in assay [6], 12.9 µM. For the same molecule, the GI50 in assay [7] was 17 µM; in assay [8], 14.7 µM; in assay [9] it was 12.3 µM; in assay [10], 4.56 µM. Moreover, the TGI in assay [1] was determined as 24.3 µM; in assay [2], 22.4 µM; in assay [3] it was 34 µM; in assay [4], 37.6 µM; in [5], 28.5 µM; in assay [6], 26 µM. The TGI was determined as 34.1 µM in assay [7], 27.9 µM in assay [8], 27.5 µM in assay [9] and 19.5 µM in assay [10].
Take `C=C1COC(O)(C2OCOC(C3CC(=O)NC(=O)C3)C2O)C1C` (stereo not given): the GI50 in [1] was 0.00629 µM; in assay [2] it was 0.00288 µM; in assay [4], 0.00425 µM and 0.0104 µM; in assay [8] it was 0.00352 µM; in assay [9], 0.00363 µM and 0.0127 µM; in assay [10], 0.00481 µM. The TGI is 0.0501 µM in assay [1]; 0.0337 µM and 0.0335 µM in [2]; 0.012 µM in assay [3]; 0.0413 µM and 0.0509 µM in assay [4]; 0.046 µM in [5]; 0.0052 µM and 0.00554 µM in assay [6]. The TGI in assay [7] was 0.163 µM; in assay [8], 0.198 µM and 0.0355 µM; in assay [10] it was 0.037 µM.
On to `CCCCCCCCCCCCCCCC(=O)N[C@H](/C=C/[C@H](O)CCCCCCCCCCCCC)CO`, for which the GI50 in assay [1], in assay [2], in assay [3], in [4], in assay [5] and in [6] was more than 100 µM throughout. Further, the GI50 in assay [7], in assay [8], in assay [9] and in assay [10] was more than 100 µM in each case. Besides, the TGI in assay [1], in assay [2], in assay [3], in assay [4], in assay [5] and in [6] was more than 100 µM throughout. The TGI in assay [7], in assay [8], in assay [9] and in assay [10] was more than 100 µM in each case.
On to `O=C1C=CC(=Nc2ccccc2)c2ccccc21`, for which the TGI worked out at 22.6 µM in assay [1]; 24.4 µM in [2]; 25.7 µM in assay [3]; 24.6 µM in assay [4]; 7.23 µM in assay [5]; 39.4 µM in assay [6]. The TGI worked out at 95.4 µM in assay [7], 27.4 µM in [8], 24.5 µM in assay [9] and 3.42 µM in assay [10].
